Measurements: EP0184822A2, “Novel anilide derivatives of substituted arylacetic acids” (SUMITOMO PHARMACEUTICALS COMPANY, LIMITED, priority 1984, dated 1986)

Each molecule was assayed on ddy-mice (assay: Antihypoxic activity (survival time of mice under reduced pressure, 190 mmHg)). Conditions: Mus musculus, ip, injected intraperitoneally usually 30 minutes before the test, desiccator at 190 mmHg, effective = mean survival time above 140 sec and p<0.05 vs control.
Assay type: in vivo
Experimental: Six ddy-mice weighing 20 - 27 g were used. Test compound was dissolved in saline or suspended in 0.5 % carboxymethylcellulose and injected intraperitoneally usually 30 minutes before the test at a dosage of 0.1 ml per 10 g of the bodyweight. Two mice were placed in a desiccator, the inside pressure of which was lowered to 190 mmHg within 2 to 3 seconds, and the survival time as well as the time interval between the start of the evacuation and the cessation of respiration was determined. The survival time of the mice which lived longer than 300 seconds was taken as 300 sec.
COc1ccc(Cc2nccc3cc(OC)c(OC)cc23)cc1OC [Papaverine, reference compound] showed a minimal effective dose of under 30 mg/kg. Work on NC(=O)c1cccc(NC(=O)C(Cc2ccccc2)c2ccccc2)c1 (stereo not drawn) [Example 1, alpha-benzyl-N-(3-carbamoylphenyl)benzeneacetamide] yielded a minimal effective dose of under 10 mg/kg. CCC(C(=O)Nc1ccc(O)cc1)c1ccccc1 (stereo not shown) [Known product (see page 2), reference compound] showed a minimal effective dose of over 30 mg/kg. O=C(Nc1cccc(O)c1)C(CCCc1ccccc1)c1ccccc1 (stereo not shown) [Example 23] showed a minimal effective dose of under 10 mg/kg. For Cc1ccc(C(CCc2ccccc2)C(=O)Nc2ccc(S(N)(=O)=O)cc2)cc1 (stereo not shown) [Example 40], the minimal effective dose was under 10 mg/kg. Molecule NS(=O)(=O)c1ccc(NC(=O)C(CCc2ccccc2)c2ccc(Cl)cc2)cc1 (stereo not shown) [Example 38] has a minimal effective dose of under 10 mg/kg. Work on CC[C@]12CCCN3CCc4c(n(c5ccccc45)[C@@](O)(C(=O)OC)C1)[C@@H]32 [Vincamine, reference compound] yielded a minimal effective dose of under 30 mg/kg. For O=C(Nc1cccc(O)c1)C(Cc1ccccc1)c1ccccc1 (stereo not shown) [Example 7], the minimal effective dose was under 10 mg/kg. CN(C)CCCOC1(Cc2ccccc2)CCCCCC1 [Bencyclane, reference compound] gave a minimal effective dose of under 30 mg/kg. NC(=O)c1cccc(NC(=O)C(CCCc2ccccc2)c2ccccc2)c1 (stereo not shown) [Example 18] showed a minimal effective dose of under 10 mg/kg.
